{"source": "patent US20260184766A1", "about": "(priority 2022, published 2026)", "key": {"[1]": {"test_system": "pseudotyped virus carrying SARS-CoV-2 (Wuhan-Hu-1) wild-type (WT) spike protein", "assay_type": "cell-based", "conditions": "for EC50: read-out: Virus Neutralization Pseudovirus (nM) Wild-type"}, "[2]": {"molecular_target": "biotinylated RBD (Wuhan-Hu-1) (Severe acute respiratory syndrome coronavirus 2, UniProt P0DTC2)"}, "biotinylated RBD": {"molecular_target": "biotinylated RBD (Severe acute respiratory syndrome coronavirus 2, UniProt P0DTC2)"}, "[3]": {"test_system": "pseudotyped virus carrying S protein of a SARS-CoV-2 delta lineage virus", "assay_type": "cell-based", "conditions": "read-out: Virus Neutralization Pseudovirus (nM) Delta"}}, "data": [{"sequence": "EGDKTCPDGYEHTCGCIGGCGCKRSACIGALCCQASLGGWLSDGETYTYEF [G3 Knob]", "values": [{"measurement": "neutralization potency of CDR3-knob only antibody, in words", "setting": "[1]", "result": "subnanomolar potency"}, {"measurement": "RBD binding relative to reference anti-spike protein antibody CR3022", "setting": "[2]", "result": "increased"}, {"measurement": "binding of coated CDR3-knob to biotinylated RBD, in words", "setting": "[2]", "result": "showed binding"}, {"measurement": "binding to RBD after heat and SDS treatment", "setting": "biotinylated RBD", "result": "maintained binding"}]}, {"sequence": "GGSCPDGYEHTCGCIGGCGCKRSACIGALCCQASLGGWLSD [G3 NTRUNC5]", "values": [{"measurement": "binding of coated CDR3-knob to biotinylated RBD, in words", "setting": "[2]", "result": "did not correlate with any reduction in binding activity"}]}, {"sequence": "GGSEGDKTCPDGYEHTCGCIGGCGCKRSACIGALCCQASLGGW [G3 TRUNC3B]", "values": [{"measurement": "binding of coated CDR3-knob to biotinylated RBD, in words", "setting": "[2]", "result": "reduced binding"}]}, {"sequence": "GGSEGDKTCPDGYEHTCGCIGGCGCKRSACIGALCCQASLGGWL [G3 TRUNC3A]", "values": [{"measurement": "binding of coated CDR3-knob to biotinylated RBD, in words", "setting": "[2]", "result": "reduced binding"}]}, {"sequence": "HWTCPDGYEHTCGCIGGCGCKRSACIGALCCQASLGGWLSDSF [2G3 knob HWSF]", "values": [{"measurement": "EC50", "setting": "[1]", "result": "0.15 ± 0.03", "unit": "nM"}, {"measurement": "EC50", "setting": "[3]", "result": "21.2 ± 22.9", "unit": "nM"}]}, {"sequence": "ISTCPDGYEHTCGCIGGCGCKRSACIGALCCQASLGGWLSDTV [2G3 knob ISTV]", "values": [{"measurement": "EC50", "setting": "[1]", "result": "0.12 ± 0.03", "unit": "nM"}, {"measurement": "EC50", "setting": "[3]", "result": "56 ± 7.02", "unit": "nM"}]}, {"sequence": "TCPDGYEHTCGCIGGCGCKRSACIGALCCQASLGGWLSD [2G3 Knob]", "values": [{"measurement": "EC50", "setting": "[1]", "result": "1.3 ± 0.3", "unit": "nM"}, {"measurement": "EC50", "setting": "[3]", "result": "71.3 ± 37.2", "unit": "nM"}]}]}
